Experimental data: PubChem BioAssay (NCI)
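Where inhibition never reached the appropriate level, the endpoint shown equals the highest concentration tested. Otherwise, values were interpolated linearly from a five-concentration, 48-hour dose response in 96-well plates. TGI marks complete inhibition of growth.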

Legend:
Assay in all cases: NCI anticancer screen, dose series, 48 h
[1] = test system: NCI-H23 lung
[2] = test system: SF-268 CNS
[3] = test system: OVCAR-8 ovarian
[4] = test system: U251 CNS
[5] = test system: CCRF-CEM leukemia
[6] = test system: UACC-257 melanoma
[7] = test system: 786-0 renal
[8] = test system: SF-295 CNS
[9] = test system: HOP-62 NSCLC
[10] = test system: HCC-2998 colon
[11] = test system: NCI-H460 lung
[12] = test system: HOP-92 NSCLC
[13] = test system: HCT-15 colon
[14] = test system: A498 renal
[15] = test system: MDA-MB-231 breast
[16] = test system: NCI-H226 lung

Compound	TGI [1] [µM]	TGI [2] [µM]	TGI [3] [µM]	TGI [4] [µM]	TGI [5] [µM]	TGI [6] [µM]	TGI [7] [µM]	TGI [8] [µM]	TGI [9] [µM]	TGI [10] [µM]	TGI [11] [µM]	TGI [12] [µM]	TGI [13] [µM]	TGI [14] [µM]	TGI [15] [µM]	TGI [16] [µM]
COc1ccc(Oc2cccc(/C=C3/C(=O)Nc4ccccc43)c2)cc1	16.2	24.1	> 100	14.2	22.1	27.8	24.1	19.9	28	21.3	25	14.3	21.8	25.4		
CC(=O)[C@@H]1[C@@H](OC(=O)CCC(C)COC2OC(CO)C(O)C(O)C2O)C[C@H]2[C@@H]3CC=C4C[C@@H](OC5OC(CO)C(OC6OC(C)C(O)C(O)C6O)C(O)C5OC5OC(C)C(O)C(O)C5O)CC[C@]4(C)[C@H]3CC[C@]12C (some centres not stated)	> 100	> 100	> 100	> 100	> 100	> 100	> 100	> 100	> 100	> 100	> 100			> 100	> 100	
CC(C)(C)c1cc(C(=O)Nc2cc(Br)c(Br)cc2S(N)(=O)=O)cc(C(C)(C)C)c1O	40	29	26.6	26.6	26.6	33.1	23	27.7	35.3	18.1			16.8		26.4	29.3
C/C(CC/C(C)=N/O)=N\O	> 100	> 100	> 100	> 100		> 100	> 100	> 100	> 100	> 100	> 100		> 100	> 100	> 100	> 100
CCNC(C)Cc1ccccc1 (configuration not stated)	> 100	> 100	> 100	> 100	> 100	> 100	> 100	> 100	> 100	> 100	> 100	> 100	> 100	> 100		> 100
C=C(C)C(=O)O[C@H]1C/C(CO)=C/CCC(=C)C(OC(C)=O)[C@H]2OC(=O)C(=C)[C@H]12 (some centres not stated)	25	10.9	39.8	35.8	6.2	24.8	12.8	91.4	73.8	32	41.7		33.6	43	25.4	> 100
CCC(C)n1c(C)nc2c1C(=O)c1ccccc1C2=O (configuration not stated)	> 100	> 100	> 100	> 100	> 100	93.8	> 100	> 100	> 100	> 100	50.8	> 100	> 100			> 100
NC(Cc1ccc(S(=O)(=O)O)cc1)C(=O)NC(CCCCNC(=O)NCCCCC(NC(=O)C(N)Cc1ccc(S(=O)(=O)O)cc1)C(=O)NC(Cc1ccc(S(=O)(=O)O)cc1)C(=O)O)C(=O)NC(Cc1ccc(S(=O)(=O)O)cc1)C(=O)O (configuration not stated)	> 100	> 100	> 100	> 100	> 100	> 100	> 100	> 100	> 100	> 100	> 100		> 100	> 100	> 100	> 100
COc1cc2c[n+](C)c3c4cc(OC)c(OC)cc4c(OC)cc3c2cc1OC	36.8	18.7	23	> 51.8	> 100	18.3	> 74.6	> 100	> 100	> 52.1	> 100		> 100	> 100	19.8	
OC1[C@H]([C@H]2CCCC[C@@H]2O)CCC[C@@H]1[C@@H]1CCCC[C@H]1O (some centres not stated)	> 100	> 100	> 100	> 100	> 100	> 100	> 100	> 100	> 100	> 100	> 100	> 100	> 100	> 100		> 100
CC(=O)OC12/C(=N/O)CCCCCC1c1ccccc12 (configuration not stated)	> 100	> 100	> 100	> 100	92.3	> 100	> 100	> 100	> 100		> 100		> 100			> 100
Cc1c(NC(=S)NN)c(=O)n(-c2ccccc2)n1C		> 100	> 100	> 100	> 100	> 100	> 100	> 100	> 100		> 100		> 100	> 100	> 100	> 100
